How the values were obtained:
Type in all cases: cell-based
Conditions in all cases: COS-7 cells
[1] = biological target: T1, human KDELR1 D50N/E117Q (Homo sapiens, UniProt P24390, D50N/E117Q); assay: ER retrieval assay, KDELR1 D50N/E117Q-GFP
T1 construct: expressed in transfected cells; host or cells: COS-7
Source text: (§1) To create KDELR1-GFP and KDELR2-GFP, the reading frames for Homo sapiens KDELR1 (Uniprot: P24390) and KDELR2 (Uniprot: P33947) were cloned into the pEF5/FRT low level mammalian expression vector with a C-terminal 20 amino acid linker made up of 5 copies of Gly-Ser-Ser-Ser followed by GFP. Specific point mutations were introduced using the Quickchange protocol (Stratagene) and are described in the key resources table and figures. To create the mScarlet-KDEL^sec ligand construct, mScarlet with an N-terminal hGH signal peptide and the 16 C-terminal residues of human BiP at its C-terminus, containing the KDEL signal, was cloned into the pcDNA3.1 vector. […] The Golgi marker protein TGN46 was detected by antibody (sheep anti-TGN46 AHP500G; AbD Serotec) and an Alexa 647 conjugated secondary anti-sheep secondary (A-21448, Invitrogen). In Figure 1d and e, endogenous KDELR was detected by antibody (mouse anti-KDELR ADI-VAA-PT048; Enzo Life Sciences) and Alexa 488 conjugated anti-mouse secondary antibody (A-21202, Invitrogen). For retrieval assays in other figures, KDELR-GFP fusion proteins were directly detected by fluorescence. The mScarlet-xDEL fusion proteins were directly detected by fluorescence. […] The fraction of KDEL receptor in the Golgi apparatus was calculated by dividing the Golgi signal by the total cell signal. […]

[2] = biological target: T2, human KDELR1 D50N/N54K/E117Q (Homo sapiens, UniProt P24390, D50N/E117Q/N54K); assay: ER retrieval assay, KDELR1 D50N/N54K/E117Q-GFP (K. lactis like)
T2 construct: expressed in transfected cells; host or cells: COS-7
T2 sequence (P24390 whole entry D50N/N54K/E117Q): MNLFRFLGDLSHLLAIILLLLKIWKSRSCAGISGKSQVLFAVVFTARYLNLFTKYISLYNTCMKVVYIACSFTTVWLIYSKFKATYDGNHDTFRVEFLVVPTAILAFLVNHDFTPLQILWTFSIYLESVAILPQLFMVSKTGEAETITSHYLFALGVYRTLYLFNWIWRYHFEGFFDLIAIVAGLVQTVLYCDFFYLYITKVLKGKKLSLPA
Source text: as §1

[3] = biological target: T3, human KDELR1 E117Q (Homo sapiens, UniProt P24390, E117Q); assay: ER retrieval assay, KDELR1 E117Q-GFP
T3 construct: expressed in transfected cells; host or cells: COS-7
T3 sequence (P24390 whole entry E117Q): as the sequence (P24390 whole entry D50N/N54K/E117Q) above, with N50D, K54N counted along it
Source text: as §1

T1 sequence (P24390 whole entry D50N/E117Q): as the sequence (P24390 whole entry D50N/N54K/E117Q) above, with K54N counted along it

ligand-induced receptor retrieval to the ER (in words) [2]: improved the response
ligand-induced receptor retrieval to the ER (in words) [3]: move to the ER
Substance: ADEL [pcDNA3.1 hGHss-mScarlet-H. sapiens BiP639-654K651A (ADEL^SEC), secreted mScarlet fusion with human BiP C-terminus, ADEL signal]
ligand-induced receptor retrieval to the ER (in words) [1]: switched specificity towards ADEL and DDEL
